Tested on: HIV-1 LTR-III G-quadruplex (FAM/TAMRA-labeled LTR-III)
Test: FRET melting assay, LTR-III G4
Type: binding
Conditions: Table S1 primary screening, ligand:ODN 50:1, singlicate
Procedure: To evaluate stabilizing properties of the ligands in a complex with oligodeoxyribonucleotides (ODNs) melting with fluorescence registration was used. ODN (0.5 μM) (Table 1), labeled with 6-carboxyfluorescein (FAM) and 6-carboxytetramethylrhodamine (TAMRA) at the 5′- and 3′-end, respectively, were folded in lithium cacodylate buffer (10 mM, pH 7.4) with 100 mM KCl by heating at 95 °C for 5 min and gradually cooling to r.t. GFP chromophore analogs (5 mM solution in DMSO) were diluted with the same buffer to the final concentration of 25 μM and mixed with an equal volume of 0.5 μM ODN solution resulting in a molar ratio of 50:1 (total volume was 50 μL). For the titration experiments molar ratios of 20:1 and 2:1 were used. Samples were analyzed using DTprime qPCR system (DNA-Technology LLC, Moscow, Russia). Fluorescence was registered by detection of FAM emission at 520 nm upon excitation at 495 nm in the temperature range of 30–95 °C with 1 °C/min gradient. Tm was determined using the instrument software and ΔTm was calculated relative to ODN Tm in a buffer solution containing 0.25% (v/v) DMSO. The primary and secondary screening were carried out in singlicate and triplicate, respectively.

In order of rising “LTR-III ΔTm” value:
1. CN1C(=O)C(=Cc2cc(Br)c(O)c(Br)c2)N=C1C=Cc1ccncc1 [N 848.1]  -1.8 °C
2. CC1=NC(=Cc2ccc(O)c([N+](=O)[O-])c2)C(=O)N1C [M 2482]  -1.2 °C
3. CC1=NC(=Cc2cc(Cl)c(O)c(Cl)c2)C(=O)N1C [N 892]  -1 °C
4. CC1=NC(=Cc2cc(F)c(O)c(F)c2)C(=O)N1 [N 853]  -0.9 °C
5. CN1C(=O)C(=Cc2ccc(O)cc2)N=C1C=Cc1cc(Cl)c(O)c(Cl)c1 [N 914]  -0.8 °C
6. COc1ccc(C=C2N=CN(C)C2=O)cc1 [N 599.2]  -0.7 °C
7. CCN(CC)c1ccc2cc(C=C3N=C(C)N(C)C3=O)ccc2c1 [N 601.23]  -0.7 °C
8. CNC(=O)C(=Cc1ccncc1)N=P(c1ccccc1)(c1ccccc1)c1ccccc1 [N 833]  -0.6 °C
9. CC1=NC(=Cc2ccc(O)c(C#N)c2)C(=O)N1C [M 2489.2]  -0.5 °C
10. CN1C=NC(=Cc2ccc(O[Si](c3ccccc3)(c3ccccc3)C(C)(C)C)cc2)C1=O [N 624]  -0.5 °C
11. CCN(CC)c1ccc(C=C2N=C3C=CC=CN3C2=O)cc1 [N 641]  -0.5 °C
12. CNC(=O)C(=Cc1ccccc1)N=P(c1ccccc1)(c1ccccc1)c1ccccc1 [N 832]  -0.5 °C
13. CC1=NC(=Cc2cc(F)c(O)c(F)c2)C(=O)N1C [M 2296]  -0.4 °C
14. CN1C(=O)C(=Cc2ccc(O)cc2)N=C1C=Cc1c(F)c(F)c(O)c(F)c1F [N 893]  -0.4 °C
15. CCOC(=O)CN1C(=O)C(=Cc2ccc(O)c(F)c2)N=C1C [M 2286.1]  -0.3 °C
16. COc1ccc(O)c(C=C2N=C(C)N(C)C2=O)c1 [M 2360]  -0.3 °C
17. COc1ccc(C=C2N=C(C=C(O)c3ccc(Br)cc3)N(C)C2=O)cc1 [N 537]  -0.3 °C
18. CC1=NC(=Cc2ccc(N3CCCCC3)cc2)C(=O)N1C [N 665]  -0.3 °C
19. CCC(=O)C1=NC(=Cc2ccc(O)cc2)C(=O)N1C [M 2372в]  -0.2 °C
20. CC1=NC(=Cc2cccc(C(F)(F)F)c2)C(=O)N1C [M 2375]  -0.2 °C
21. COc1cc(C=C2N=C(C)N(C)C2=O)ccc1O [M 2491]  -0.2 °C
22. CC1=NC(=Cc2ccc(N3CCCC3)cc2)C(=O)N1C [N 704]  -0.2 °C
23. CNC(=O)C(=Cc1ccccc1)N=[N+]=[N-] [N 830b]  -0.2 °C
24. CN1C(=O)C(=Cc2ccc(O)cc2)N=C1C=Cc1cc(Cl)nc(Cl)c1 [N 886]  -0.2 °C
25. CC1=NC(=Cc2ccncc2)C(=O)N1CCNC(=O)OC(C)(C)C [M 2250.2]  -0.1 °C
26. COc1ccc(/C=C2N=C(/C=C/N3CCOCC3)N(C)C\2=O)cc1 [M 2371c]  -0.1 °C
27. CN1C(=O)C(=Cc2ccc(C#N)cc2)N=C1Nc1ccccc1 [M 2385a]  -0.1 °C
28. CN1C(=O)C(=Cc2ccccc2)N=C1Nc1ccccc1 [M 2385b1]  -0.1 °C
29. COc1ccc2cc(CO)ccc2c1 [N 49]  -0.1 °C
30. Cc1ccc(C(O)=CC2=NC(=Cc3ccc(O)cc3)C(=O)N2C)cc1 [N 154]  -0.1 °C
31. CCN(CC)c1ccc(C=C2N=C(C)N(CCCCO)C2=O)cc1 [N 182]  -0.1 °C
32. CC1=NC(=Cc2ccc[nH]2)C(=O)N1C [N 815]  -0.1 °C
33. O=C1C(=C2N=C3C=CC=CN3C2=O)N=C2C=CC=CN12 [N 817.2]  -0.1 °C
34. CNC(=O)C(=Cc1ccc(C#N)cc1)N=[N+]=[N-] [N 830A]  -0.1 °C
35. CC1=NC(=Cc2ccc(O)cc2O)C(=O)N1C [N 844.1]  -0.1 °C
36. CN1C(=O)C(=Cc2ccc(N(C)C)cc2)N=C1C=Cc1cc(Br)c(O)c(Br)c1 [M 2368c]  0 °C
37. CC(=O)Oc1ccc(C=C2N=C(C)N(C)C2=O)cc1 [M 2370]  0 °C
38. CCOc1cc(C=C2N=C(C)N(C)C2=O)ccc1O [M 2486]  0 °C
39. O=C1NC(=S)NC1=Cc1ccc(O)cc1 [M 2497]  0 °C
40. COc1ccc(C=C2N=C(C=C(O)c3cccs3)N(C)C2=O)cc1 [N 539.1]  0 °C
41. CCNc1ccc2cc(Br)ccc2c1 [N 576.2]  0 °C
42. Oc1ccc2cc(Br)ccc2c1 [N 576.3]  0 °C
43. CCN(CC)c1ccc2c(C=CN(C)C)cc(=O)oc2c1 [N 582.1]  0 °C
44. CC1=NC(=Cc2ccccc2O)C(=O)N1 [N 702.1]  0 °C
45. CC1=NC(=Cc2cccc(F)c2O)C(=O)N1C [N 781]  0 °C
46. O=C1/C(=C/c2ccncc2)N=C2C=CC=CN12 [N 817]  0 °C
47. CNC(=O)C(=Cc1ccc(C#N)cc1)N=P(c1ccccc1)(c1ccccc1)c1ccccc1 [N 831]  0 °C
48. CN1C(=O)C(=Cc2ccc(O)cc2)N=C1C=Cc1ccc2cc(N(C)C)ccc2c1 [N 861]  0 °C
49. O=C1NC(/C=C/c2ccncc2)=NC/1=C\c1cc(F)c(O)c(F)c1 [N 863]  0 °C
50. CCN(CC)c1ccc(C=C2N=C(C=Cc3cc(Br)c(O)c(Br)c3)N(C)C2=O)cc1 [M 2368d]  0.1 °C
51. CN1C(=O)C(=Cc2ccc(O)cc2)N=C1C(=O)c1ccccc1 [M 2372a]  0.1 °C
52. COc1ccc(C=C2N=C(C)N(C)C2=O)c(OC)c1 [M 2379]  0.1 °C
53. COc1cc(/C=C2N=C(/C=C/c3ccccc3)N(C)C\2=O)ccc1O [M 2499a]  0.1 °C
54. CC1=NC(=Cc2ccc(N3CCC3)cc2)C(=O)N1C [N 710.12]  0.1 °C
55. CN1C(=O)C(=Cc2ccc(SSc3ccc(C=C4N=C(C=Cc5cc(Br)c(O)c(Br)c5)N(C)C4=O)cc3)cc2)N=C1C=Cc1cc(Br)c(O)c(Br)c1 [N 898]  0.1 °C
56. CC1=NC(=Cc2cc(C(C)(C)C)c(O)c(C(C)(C)C)c2)C(=O)N1C [M 2273.1]  0.2 °C
57. COc1cc(O)ccc1C=C1N=C(C=C(C#N)c2ccccc2)N(C)C1=O [MID 151]  0.2 °C
58. CC1=CC(C)(C)N(C)c2ccc(C=C3N=C(C)N(CCCCO)C3=O)cc21 [N 141]  0.2 °C
59. CCN(CC)c1ccc(C=C2N=C(C)N(CCCCO[Si](c3ccccc3)(c3ccccc3)C(C)(C)C)C2=O)cc1 [N 162]  0.2 °C
60. CCN(CC)c1ccc(C=C2N=C(C)N(CCCCCl)C2=O)cc1 [N 189]  0.2 °C
61. CC1=NC(=Cc2ccc(N3CCCCCC3)cc2)C(=O)N1C [N 708.2]  0.2 °C
62. CC1=NC(=Cc2ccc3[nH]c(C)c(C)c3c2)C(=O)N1C [N 792]  0.2 °C
63. CN1C(=O)C(=Cc2ccc(O)c(O)c2)N=C1C=Cc1ccccc1 [M 2499b]  0.3 °C
64. CC1=NC(=Cc2cc3c4c(c2)CCCN4CCC3)C(=O)N1CCCC(=O)O [N 152]  0.3 °C
65. CC1=NC(=Cc2ccc3c(c2)CCN3)C(=O)N1C [N 652.3]  0.3 °C
66. COc1cc(O)ccc1C=C1N=C(C(F)(F)F)N(C)C1=O [M 2738c]  0.4 °C
67. COc1cc(O)ccc1C=C1N=C(C=Cc2ccc(N(C)C)cc2)N(C)C1=O [MID 147]  0.4 °C
68. CN1C(=O)C(=Cc2ccc(O)cc2O)N=C1C=Cc1cc(Br)c(O)c(Br)c1 [N 855]  0.4 °C
69. COc1cc(O)ccc1/C=C1N=C(/C=C/c2ccncc2)N(C)C\1=O [N 871B]  0.4 °C
70. CN1C(=O)C(=Cc2ccc(O)cc2)N=C1C=Cc1cccc(C(F)(F)F)c1 [N 873]  0.4 °C
71. CN1C(=O)C(=Cc2cc(Cl)c(O)c(Cl)c2)N=C1C=Cc1ccncc1 [N 901]  0.4 °C
72. COc1cc(O)ccc1/C=C/C1=[N+](C)c2ccccc2C1(C)C.[O-][Cl+3]([O-])([O-])[O-] [M 2761a]  0.5 °C
73. CC1=CC(C)(C)N(C)c2ccc(C=CC3=NC(=Cc4ccc5c(c4)C(C)=CC(C)(C)N5C)C(=O)N3CCCC(=O)O)cc21 [N 62]  0.6 °C
74. COc1ccc(C=CC2=NC(=Cc3ccncc3)C(=O)N2C)cc1 [N 813]  0.6 °C
75. CC1=NC(=Cc2ccc3cc(N4CCCC4)ccc3c2)C(=O)N1C [N 555.3]  0.7 °C
76. COc1cc(O)ccc1C=C1N=C(C=Cc2cc(Cl)nc(Cl)c2)N(C)C1=O [N 960b]  0.7 °C
77. COc1cc(O)ccc1C=C1N=C(C)N(C)C1=O [N 865]  0.8 °C
78. COc1cc(O)ccc1/C=C1N=C(/C=C/c2ccccc2)N(C)C\1=O [MID 145]  0.9 °C
79. CN1C(=O)C(=Cc2ccc(O)cc2N(C)C)N=C1C=Cc1ccncc1 [MID 213]  0.9 °C
80. CN1C(=O)C(=Cc2ccncc2)N=C1C=Cc1ccncc1 [N 768]  0.9 °C
81. CC1=NC(=Cc2cc3c4c(c2)CCCN4CCC3)C(=O)N1CCO [N 111]  1 °C
82. COc1cc(O)ccc1C=C1N=C(C=Cc2ccccn2)N(C)C1=O [M 2766]  1.1 °C
83. COc1ccc(O)c(C=C2N=C(C=Cc3cc(Br)c(O)c(Br)c3)N(C)C2=O)c1 [N 851B]  1.2 °C
84. COc1cc(C=C2N=C(C(F)(F)F)N(C)C2=O)c(OC)cc1O [M 2738d]  1.4 °C
85. COc1ccc(OC)c(C=C2N=C(C=Cc3cc(Br)c(O)c(Br)c3)N(C)C2=O)c1 [N 851A]  1.4 °C
86. COc1cc(O)ccc1/C=C1N=C(/C=C(\C#N)c2cccs2)N(C)C\1=O [MID 153]  2 °C
